Patent US11254686B1 (Corvus Pharmaceuticals, Inc., priority 2017, dated 2022)

Tests used:
adenosine A1 receptor = adenosine A1 receptor (Homo sapiens (Human), UniProt P30542); experiment: Adenosine receptor activity assay (Table 1), A1 cAMP; type: cell-based
adenosine A2B receptor = adenosine A2B receptor (Homo sapiens (Human), UniProt P29275); experiment: Adenosine receptor activity assay (Table 1), A2B activity; type: biochemical; conditions: for Ratio: A2A activity to A2B activity (A2A/A2B); for IC50: read-out: Ave A2B cAMP IC50
adenosine A2A receptor = adenosine A2A receptor (Homo sapiens (Human), UniProt P29274); experiment: Adenosine receptor activity assay (Table 1), A2A activity; type: biochemical; conditions: read-out: Ave A2A cAMP IC50
adenosine A3 receptor = adenosine A3 receptor (Homo sapiens (Human), UniProt P0DMS8); experiment: Adenosine receptor activity assay (Table 1), A3 cAMP; type: cell-based
adenosine A3 receptor, sequence (P0DMS8 whole entry): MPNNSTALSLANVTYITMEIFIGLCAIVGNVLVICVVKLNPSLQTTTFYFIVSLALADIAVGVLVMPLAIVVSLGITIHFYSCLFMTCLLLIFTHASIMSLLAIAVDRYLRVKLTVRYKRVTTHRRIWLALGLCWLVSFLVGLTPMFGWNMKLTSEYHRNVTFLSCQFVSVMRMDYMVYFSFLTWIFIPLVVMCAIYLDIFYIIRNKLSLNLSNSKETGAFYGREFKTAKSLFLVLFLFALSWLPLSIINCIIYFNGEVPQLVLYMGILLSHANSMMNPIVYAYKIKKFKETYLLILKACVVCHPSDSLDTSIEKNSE

adenosine A1 receptor, sequence (P30542 whole entry): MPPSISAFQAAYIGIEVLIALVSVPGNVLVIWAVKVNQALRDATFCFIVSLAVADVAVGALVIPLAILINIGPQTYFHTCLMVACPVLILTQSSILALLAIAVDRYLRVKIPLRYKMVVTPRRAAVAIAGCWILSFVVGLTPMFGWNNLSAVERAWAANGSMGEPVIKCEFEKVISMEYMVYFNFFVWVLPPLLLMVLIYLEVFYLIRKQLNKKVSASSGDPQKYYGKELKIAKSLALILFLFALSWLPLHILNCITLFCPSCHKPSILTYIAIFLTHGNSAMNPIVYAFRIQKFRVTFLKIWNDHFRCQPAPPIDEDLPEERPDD
adenosine A2A receptor, sequence (P29274 whole entry): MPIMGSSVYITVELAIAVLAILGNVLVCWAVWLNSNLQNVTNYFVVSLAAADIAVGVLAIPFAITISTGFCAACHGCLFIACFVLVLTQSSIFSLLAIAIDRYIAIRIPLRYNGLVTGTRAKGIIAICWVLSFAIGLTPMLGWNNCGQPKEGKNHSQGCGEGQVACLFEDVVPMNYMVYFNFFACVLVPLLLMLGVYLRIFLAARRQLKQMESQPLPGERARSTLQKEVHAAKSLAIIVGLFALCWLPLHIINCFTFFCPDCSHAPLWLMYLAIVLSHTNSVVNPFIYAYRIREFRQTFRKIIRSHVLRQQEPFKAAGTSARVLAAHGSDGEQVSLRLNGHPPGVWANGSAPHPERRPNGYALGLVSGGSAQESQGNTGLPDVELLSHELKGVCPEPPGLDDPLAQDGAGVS
adenosine A2B receptor, sequence (P29275 whole entry): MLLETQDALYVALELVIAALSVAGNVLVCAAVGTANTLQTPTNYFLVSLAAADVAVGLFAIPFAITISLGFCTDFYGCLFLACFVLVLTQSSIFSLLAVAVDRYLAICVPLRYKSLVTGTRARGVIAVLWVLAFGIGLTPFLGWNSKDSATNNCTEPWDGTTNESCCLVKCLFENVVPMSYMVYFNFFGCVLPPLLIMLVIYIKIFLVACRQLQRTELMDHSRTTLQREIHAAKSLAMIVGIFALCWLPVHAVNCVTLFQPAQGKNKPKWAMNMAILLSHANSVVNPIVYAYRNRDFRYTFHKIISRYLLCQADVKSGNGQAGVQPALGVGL

Row | Compound | IC50 (adenosine A1 receptor) | Ratio (adenosine A2B receptor) | IC50 (adenosine A2B receptor) | IC50 (adenosine A2A receptor) | IC50 (adenosine A3 receptor)
1 | Cc1cc2nc(N[C@@H](C)c3ccccn3)nc(C(=O)NC[C@H](C)O)c2s1 [Example Z287, N—((S)-2-Hydroxypropyl)-6-methyl-2-(((S)-1-(pyridin-2-yl)ethyl)amino)thieno[3,2-d]pyrimidine-4-carboxamide] | > 500 nM | 23.71 | 10 to 50 nM | 100 to 500 nM | 50 to 100 nM
2 | Cc1cc2nc(N[C@@H](C)c3ccccn3)nc(C(=O)NC[C@@H](C)O)c2s1 [Example Z288, N—((R)-2-Hydroxypropyl)-6-methyl-2-(((S)-1-(pyridin-2-yl)ethyl)amino)thieno[3,2-d]pyrimidine-4-carboxamide] | > 500 nM | 35.51 | < 10 nM | 100 to 500 nM | 50 to 100 nM
3 | C[C@H](O)CNC(=O)c1nc(N[C@@H](C)c2cncc(Cl)c2)nc2ccsc12 [Example Z292, 2-(((S)-1-(5-Chloropyridin-3-yl)ethyl)amino)-N—((S)-2-hydroxypropyl)thieno[3,2-d]pyrimidine-4-carboxamide] | 50 to 100 nM | 60.59 | 10 to 50 nM | > 500 nM | 50 to 100 nM
4 | Cc1cc2nc(N[C@@H](C)c3cccnc3)nc(C(=O)N3CC(O)C3)c2s1 [Example Z299, (S)-(3-Hydroxyazetidin-1-yl)(6-methyl-2-((1-(pyridin-3-yl)ethyl)amino)thieno[3,2-d]pyrimidin-4-yl)methanone] | > 500 nM | 39.68 | < 10 nM | 100 to 500 nM | > 500 nM
5 | CO[C@@H]1CCN(C(=O)c2nc(N[C@@H](C)c3cncc(F)c3)nc3cc(C)sc23)C1 [Example Z302, (2-(((S)-1-(5-Fluoropyridin-3-yl)ethyl)amino)-6-methylthieno[3,2-d]pyrimidin-4-yl)((R)-3-methoxypyrrolidin-1-yl)methanone] | > 500 nM | 35.54 | < 10 nM | 50 to 100 nM | 50 to 100 nM
6 | C[C@H](Nc1nc(C(=O)N[C@H]2C[C@@H](O)C2)c2sccc2n1)c1cncc(Cl)c1 [Example Z305, 2-(((S)-1-(5-Chloropyridin-3-yl)ethyl)amino)-N-((1s,3R)-3-hydroxycyclobutyl)thieno[3,2-d]pyrimidine-4-carboxamide] | > 500 nM | 38.51 | < 10 nM | 50 to 100 nM | > 500 nM
7 | Cc1cc2nc(N[C@@H](C)c3cncc(F)c3)nc(C(=O)NCC(C)(C)O)c2s1 [Example Z308, (S)-2-((1-(5-Fluoropyridin-3-yl)ethyl)amino)-N-(2-hydroxy-2-methylpropyl)-6-methylthieno[3,2-d]pyrimidine-4-carboxamide] | 50 to 100 nM | 29.96 | < 10 nM | 50 to 100 nM | 50 to 100 nM
8 | Cc1cc2nc(N[C@@H](C)c3cncc(F)c3)nc(C(=O)N3CC[C@H](CO)C3)c2s1 [Example Z309, (2-(((S)-1-(5-Fluoropyridin-3-yl)ethyl)amino)-6-methylthieno[3,2-d]pyrimidin-4-yl)((S)-3-(hydroxymethyl)pyrrolidin-1-yl)methanone] | > 500 nM | 37.14 | < 10 nM | 50 to 100 nM | > 500 nM
9 | C[C@H](Nc1nc(C(=O)N[C@H]2CC[C@@H](O)C2)c2sccc2n1)c1cncc(F)c1 [Example Z329, 2-(((S)-1-(5-Fluoropyridin-3-yl)ethyl)amino)-N-((1S,3R)-3-hydroxycyclopentyl)thieno[3,2-d]pyrimidine-4-carboxamide] | 50 to 100 nM | 26.05 | < 10 nM | 10 to 50 nM | 50 to 100 nM
10 | CC(=O)N[C@H]1CCN(C(=O)c2nc(N[C@@H](C)c3cncc(F)c3)nc3ccsc23)C1 [Example Z331, N—((S)-1-(2-(((S)-1-(5-Fluoropyridin-3-yl)ethyl)amino)thieno[3,2-d]pyrimidine-4-carbonyl)pyrrolidin-3-yl)acetamide] | > 500 nM | 61.94 | < 10 nM | 100 to 500 nM | > 500 nM

Second part, the molecule after the results:

Row | IC50 (adenosine A1 receptor) | Ratio (adenosine A2B receptor) | IC50 (adenosine A2B receptor) | IC50 (adenosine A2A receptor) | IC50 (adenosine A3 receptor) | Compound
11 | 50 to 100 nM | 51.08 | < 10 nM | 100 to 500 nM | 50 to 100 nM | Cc1cc2nc(N[C@@H](C)c3ccccn3)nc(C(=O)N3CC(O)C3)c2s1 [Example Z285, (S)-(3-Hydroxyazetidin-1-yl)(6-methyl-2-((1-(pyridin-2-yl)ethyl)amino)thieno[3,2-d]pyrimidin-4-yl)methanone]
12 | > 500 nM | 26.11 | < 10 nM | 50 to 100 nM | > 500 nM | COC1CN(C(=O)c2nc(N[C@@H](C)c3cccnc3)nc3cc(C)sc23)C1 [Example Z286, (S)-(3-Methoxyazetidin-1-yl)(6-methyl-2-((1-(pyridin-3-yl)ethyl)amino)thieno[3,2-d]pyrimidin-4-yl)methanone]
13 | 50 to 100 nM | 50.12 | 10 to 50 nM | > 500 nM | > 500 nM | C[C@H](Nc1nc(C(=O)NCCO)c2sccc2n1)c1cncc(Cl)c1 [Example Z291, (S)-2-((1-(5-Chloropyridin-3-yl)ethyl)amino)-N-(2-hydroxyethyl)thieno[3,2-d]pyrimidine-4-carboxamide]
14 | 50 to 100 nM | 41.78 | < 10 nM | 100 to 500 nM | 50 to 100 nM | C[C@H](Nc1nc(C(=O)NC[C@@H](C)O)c2sccc2n1)c1cncc(Cl)c1 [Example Z293, 2-(((S)-1-(5-Chloropyridin-3-yl)ethyl)amino)-N—((R)-2-hydroxypropyl)thieno[3,2-d]pyrimidine-4-carboxamide]
15 | > 500 nM | 68.33 | < 10 nM | 100 to 500 nM | > 500 nM | C[C@H](Nc1nc(C(=O)N2CC[C@@H](CO)C2)c2sccc2n1)c1cncc(F)c1 [Example Z295, (2-(((S)-1-(5-Fluoropyridin-3-yl)ethyl)amino)thieno[3,2-d]pyrimidin-4-yl)((R)-3-(hydroxymethyl)pyrrolidin-1-yl)methanone]
16 | 50 to 100 nM | 21.89 | < 10 nM | 10 to 50 nM | 50 to 100 nM | COC1CN(C(=O)c2nc(N[C@@H](C)c3ccccn3)nc3cc(C)sc23)C1 [Example Z300, (S)-(3-Methoxyazetidin-1-yl)(6-methyl-2-((1-(pyridin-2-yl)ethyl)amino)thieno[3,2-d]pyrimidin-4-yl)methanone]
17 | > 500 nM | 71.73 | < 10 nM | 100 to 500 nM | > 500 nM | Cc1cc2nc(N[C@@H](C)c3cncc(F)c3)nc(C(=O)N3CC[C@@H](CO)C3)c2s1 [Example Z310, (2-(((S)-1-(5-Fluoropyridin-3-yl)ethyl)amino)-6-methylthieno[3,2-d]pyrimidin-4-yl)((R)-3-(hydroxymethyl)pyrrolidin-1-yl)methanone]
18 | > 500 nM | 3.82 | 10 to 50 nM | 50 to 100 nM | 50 to 100 nM | CO[C@H]1CCN(C(=O)c2nc(N[C@@H](C)c3ccccn3)nc3cc(C)sc23)C1 [Example Z311, ((S)-3-Methoxypyrrolidin-1-yl)(6-methyl-2-(((S)-1-(pyridin-2-yl)ethyl)amino)thieno[3,2-d]pyrimidin-4-yl)methanone]
19 | > 500 nM | 0.54 | 50 to 100 nM | 10 to 50 nM | 10 to 50 nM | C[C@H](Nc1nc(C(=O)N[C@@H]2CCN(C(=O)OC(C)(C)C)C2)c2sccc2n1)c1ccccn1 [Example Z326, tert-Butyl (R)-3-(2-(((S)-1-(pyridin-2-yl)ethyl)amino)thieno[3,2-d]pyrimidine-4-carboxamido)pyrrolidine-1-carboxylate]
20 | > 500 nM | 143.99 | < 10 nM | > 500 nM | > 500 nM | C[C@H](Nc1nc(C(=O)N2CCCC2)c2sc(C(F)(F)F)cc2n1)c1cccnc1 [Example Z327, (S)-(2-((1-(Pyridin-3-yl)ethyl)amino)-6-(trifluoromethyl)thieno[3,2-d]pyrimidin-4-yl)(pyrrolidin-1-yl)methanone]
21 | > 500 nM | 107.75 | < 10 nM | 100 to 500 nM | 50 to 100 nM | Cc1cc2nc(N[C@@H](C)c3cccnc3)nc(C(=O)NC[C@H](C)O)c2s1 [Example Z328, N—((S)-2-Hydroxypropyl)-6-methyl-2-(((S)-1-(pyridin-3-yl)ethyl)amino)thieno[3,2-d]pyrimidine-4-carboxamide]
22 | > 500 nM | 171.86 | < 10 nM | 100 to 500 nM | 50 to 100 nM | Cc1cc2nc(N[C@@H](C)c3cccnc3)nc(C(=O)NC[C@@H](C)O)c2s1 [Example Z334, N—((R)-2-Hydroxypropyl)-6-methyl-2-(((S′)-1-(pyridin-3-yl)ethyl)amino)thieno[3,2-d]pyrimidine-4-carboxamide]
23 | > 500 nM | 136.91 | < 10 nM | > 500 nM | > 500 nM | Cc1cc2nc(N[C@@H](C)c3cccnc3)nc(C(=O)N3CC[C@H](CO)C3)c2s1 [Example Z336, ((S)-3-(Hydroxymethyl)pyrrolidin-1-yl)(6-methyl-2-(((S)-1-(pyridin-3-yl)ethyl)amino)thieno[3,2-d]pyrimidin-4-yl)methanone]
24 | > 500 nM | 10.57 | < 10 nM | 50 to 100 nM | > 500 nM | C[C@H](Nc1nc(C(=O)NCC2CCOCC2)c2sccc2n1)c1cncc(F)c1 [Example Z339, (S)-2-((1-(5-Fluoropyridin-3-yl)ethyl)amino)-N-((tetrahydro-2H-pyran-4-yl)methyl)thieno[3,2-d]pyrimidine-4-carboxamide]
